Assays:
[1] = system: Mycobacterium tuberculosis Erdman (autoluminescent); assay: total FIC50 (Loewe) at 50% inhibition, three-drug combination (log2); higher = more antagonistic
Description: (§1)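 DiaMOND equipotent three-drug combination dose responses (10 doses, 1.5- or 2-fold spacing, centred on IC90) against autoluminescent M. tuberculosis Erdman in 8 in vitro models. Read-out is OD600, or luminescence for the intracellular and dormancy models, normalised to untreated wells. Hill-fit Einf, AUC25 and GRinf are potency metrics; FIC50 and FIC90 are total Loewe fractional inhibitory concentrations as log2 (negative = synergy).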

[2] = system: Mycobacterium tuberculosis Erdman (autoluminescent); assay: total FIC90 (Loewe) at 90% inhibition, three-drug combination (log2); higher = more antagonistic
Description: as §1

[3] = system: Mycobacterium tuberculosis Erdman (autoluminescent); assay: Einf, fitted maximum growth inhibition of three-drug combination (fraction); higher = stronger maximal inhibition
Description: as §1

[4] = system: Mycobacterium tuberculosis Erdman (autoluminescent); assay: AUC25, normalised area under dose response up to IC25 (three-drug combination) (fraction (0-1)); higher = more potent at low dose
Description: as §1

[5] = system: Mycobacterium tuberculosis Erdman (autoluminescent); assay: GRinf, maximum normalised growth rate inhibition (three-drug combination) (unitless (-1 to 1)); higher = less effect (negative = killing)
Description: as §1

[6] = in vitro model: acidic pH 5.7, time point: constant (~7 days, model-specific)
[7] = in vitro model: acidic pH 5.7, time point: terminal (~4-5 doublings, model-specific)
[8] = in vitro model: butyrate, time point: constant (~7 days, model-specific)
[9] = in vitro model: butyrate, time point: terminal (~4-5 doublings, model-specific)
[10] = in vitro model: cholesterol 0.05 mM, time point: constant (~7 days, model-specific)
[11] = in vitro model: cholesterol 0.05 mM, time point: terminal (~4-5 doublings, model-specific)
[12] = in vitro model: cholesterol-high 0.2 mM, time point: constant (~7 days, model-specific)
[13] = in vitro model: cholesterol-high 0.2 mM, time point: terminal (~4-5 doublings, model-specific)
[14] = in vitro model: dormancy (butyrate + nitrate, low O2), time point: constant (~7 days, model-specific)
[15] = in vitro model: dormancy (butyrate + nitrate, low O2), time point: terminal (~4-5 doublings, model-specific)
[16] = in vitro model: standard 7H9 glycerol, time point: constant = terminal
[17] = in vitro model: valerate, time point: constant (~7 days, model-specific)
[18] = in vitro model: valerate, time point: terminal (~4-5 doublings, model-specific)
[19] = in vitro model: intracellular J774, time point: constant = terminal

## NNC(=O)c1ccncc1 [isoniazid] + CO[C@H]1/C=C/O[C@@]2(C)Oc3c(C)c(O)c4c(O)c(c(/C=N/N5CCN(C6CCCC6)CC5)c(O)c4c3C2=O)NC(=O)/C(C)=C\C=C\[C@H](C)[C@H](O)[C@@H](C)[C@@H](O)[C@@H](C)[C@H](OC(C)=O)[C@@H]1C [rifapentine] + CO[C@H]1/C=C/O[C@@]2(C)Oc3c(C)c(O)c4c(O)c(c(/C=N/N5CCN(C)CC5)c(O)c4c3C2=O)NC(=O)/C(C)=C\C=C\[C@H](C)[C@H](O)[C@@H](C)[C@@H](O)[C@@H](C)[C@H](OC(C)=O)[C@@H]1C [rifampicin]
[1]; [6]
  total FIC50: 0.753
[1]; [7]
  total FIC50: 0.528
[1]; [8]
  total FIC50: 0.263
[1]; [9]
  total FIC50: 0.203
[1]; [10]
  total FIC50: 0.806
[1]; [11]
  total FIC50: 0.447
[1]; [12]
  total FIC50: 0.176
[1]; [13]
  total FIC50: 0.475
[1]; [14]
  total FIC50: -0.0392
[1]; [15]
  total FIC50: -0.192
[1]; [16]
  total FIC50: 0.523
[1]; [17]
  total FIC50: 0.498
[1]; [18]
  total FIC50: 0.354
[2]; [7]
  total FIC90: 0.407
[2]; [8]
  total FIC90: 0.467
[2]; [9]
  total FIC90: 0.338
[2]; [11]
  total FIC90: -0.00675
[2]; [13]
  total FIC90: 0.196
[2]; [14]
  total FIC90: -0.445
[2]; [15]
  total FIC90: -0.199
[2]; [19]
  total FIC90: 0.217
[2]; [18]
  total FIC90: 0.159
[3]; [6]
  Einf: 0.87
[3]; [7]
  Einf: 0.98
[3]; [8]
  Einf: 0.922
[3]; [9]
  Einf: 0.967
[3]; [10]
  Einf: 0.62
[3]; [11]
  Einf: 0.883
[3]; [12]
  Einf: 0.913
[3]; [13]
  Einf: 0.998
[3]; [14]
  Einf: 0.859
[3]; [15]
  Einf: 0.984
[3]; [19]
  Einf: 0.936
[3]; [16]
  Einf: 0.906
[3]; [17]
  Einf: 0.881
[3]; [18]
  Einf: 0.941
[4]; [6]
  AUC25: 0.0821
[4]; [7]
  AUC25: 0.0679
[4]; [8]
  AUC25: 0.104
[4]; [9]
  AUC25: 0.0874
[4]; [10]
  AUC25: 0.112
[4]; [11]
  AUC25: 0.0884
[4]; [12]
  AUC25: 0.068
[4]; [13]
  AUC25: 0.055
[4]; [14]
  AUC25: 0.0473
[4]; [15]
  AUC25: 0.0455
[4]; [16]
  AUC25: 0.0666
[4]; [17]
  AUC25: 0.0385
[4]; [18]
  AUC25: 0.0262
[5]; [6]
  GRinf: -0.0825
[5]; [7]
  GRinf: -0.129
[5]; [8]
  GRinf: 0.00523
[5]; [9]
  GRinf: 0.000636
[5]; [10]
  GRinf: 0.0102
[5]; [11]
  GRinf: -0.129
[5]; [12]
  GRinf: -0.352
[5]; [13]
  GRinf: -0.762
[5]; [14]
  GRinf: 0.242
[5]; [15]
  GRinf: -0.157
[5]; [19]
  GRinf: -0.1
[5]; [16]
  GRinf: 0.0924
[5]; [17]
  GRinf: -0.0115
[5]; [18]
  GRinf: 0.00295

## NNC(=O)c1ccncc1 [isoniazid] + COc1c(N2C[C@@H]3CCCN[C@@H]3C2)c(F)cc2c(=O)c(C(=O)O)cn(C3CC3)c12 [moxifloxacin] + CO[C@H]1/C=C/O[C@@]2(C)Oc3c(C)c(O)c4c(O)c(c(/C=N/N5CCN(C6CCCC6)CC5)c(O)c4c3C2=O)NC(=O)/C(C)=C\C=C\[C@H](C)[C@H](O)[C@@H](C)[C@@H](O)[C@@H](C)[C@H](OC(C)=O)[C@@H]1C [rifapentine]
[1]; [6]
  total FIC50: 0.631
[1]; [7]
  total FIC50: 0.694
[1]; [8]
  total FIC50: 0.673
[1]; [9]
  total FIC50: 0.595
[1]; [10]
  total FIC50: 0.862
[1]; [11]
  total FIC50: 0.866
[1]; [12]
  total FIC50: 0.636
[1]; [13]
  total FIC50: 0.916
[1]; [14]
  total FIC50: 0.401
[1]; [15]
  total FIC50: 0.655
[1]; [16]
  total FIC50: 0.774
[1]; [17]
  total FIC50: 0.608
[1]; [18]
  total FIC50: 0.659
[2]; [7]
  total FIC90: 0.483
[2]; [8]
  total FIC90: 0.414
[2]; [9]
  total FIC90: 0.447
[2]; [11]
  total FIC90: 0.95
[2]; [13]
  total FIC90: 0.976
[2]; [14]
  total FIC90: 0.429
[2]; [15]
  total FIC90: 0.61
[2]; [19]
  total FIC90: 0.563
[2]; [16]
  total FIC90: 0.752
[2]; [18]
  total FIC90: 0.621
[3]; [6]
  Einf: 0.856
[3]; [7]
  Einf: 0.974
[3]; [8]
  Einf: 0.917
[3]; [9]
  Einf: 0.965
[3]; [10]
  Einf: 0.644
[3]; [11]
  Einf: 0.88
[3]; [12]
  Einf: 0.922
[3]; [13]
  Einf: 1
[3]; [14]
  Einf: 0.866
[3]; [15]
  Einf: 0.97
[3]; [19]
  Einf: 0.952
[3]; [16]
  Einf: 0.911
[3]; [17]
  Einf: 0.866
[3]; [18]
  Einf: 0.933
[4]; [6]
  AUC25: 0.0764
[4]; [7]
  AUC25: 0.0472
[4]; [8]
  AUC25: 0.0757
[4]; [9]
  AUC25: 0.0584
[4]; [10]
  AUC25: 0.102
[4]; [11]
  AUC25: 0.0878
[4]; [12]
  AUC25: 0.0823
[4]; [13]
  AUC25: 0.0703
[4]; [14]
  AUC25: 0.0676
[4]; [15]
  AUC25: 0.0486
[4]; [16]
  AUC25: 0.0438
[4]; [17]
  AUC25: 0.0564
[4]; [18]
  AUC25: 0.0386
[5]; [6]
  GRinf: -0.0715
[5]; [7]
  GRinf: -0.112
[5]; [8]
  GRinf: 0.00281
[5]; [9]
  GRinf: 0.00571
[5]; [10]
  GRinf: -0.051
[5]; [11]
  GRinf: -0.115
[5]; [12]
  GRinf: -0.472
[5]; [13]
  GRinf: -0.778
[5]; [14]
  GRinf: 0.268
[5]; [15]
  GRinf: -0.0791
[5]; [19]
  GRinf: -0.208
[5]; [16]
  GRinf: 0.0464
[5]; [17]
  GRinf: -0.0209
[5]; [18]
  GRinf: -0.00377

## NNC(=O)c1ccncc1 [isoniazid] + COc1c(N2C[C@@H]3CCCN[C@@H]3C2)c(F)cc2c(=O)c(C(=O)O)cn(C3CC3)c12 [moxifloxacin] + CO[C@H]1/C=C/O[C@@]2(C)Oc3c(C)c(O)c4c(O)c(c(/C=N/N5CCN(C)CC5)c(O)c4c3C2=O)NC(=O)/C(C)=C\C=C\[C@H](C)[C@H](O)[C@@H](C)[C@@H](O)[C@@H](C)[C@H](OC(C)=O)[C@@H]1C [rifampicin]
[1]; [6]
  total FIC50: 0.568
[1]; [7]
  total FIC50: 0.624
[1]; [8]
  total FIC50: 0.315
[1]; [9]
  total FIC50: 0.345
[1]; [10]
  total FIC50: 0.719
[1]; [11]
  total FIC50: 1.04
[1]; [12]
  total FIC50: 0.265
[1]; [13]
  total FIC50: 0.508
[1]; [14]
  total FIC50: 0.163
[1]; [15]
  total FIC50: 0.14
[1]; [16]
  total FIC50: 0.736
[1]; [17]
  total FIC50: 0.773
[1]; [18]
  total FIC50: 0.731
[2]; [7]
  total FIC90: 0.457
[2]; [8]
  total FIC90: 0.977
[2]; [9]
  total FIC90: 0.38
[2]; [11]
  total FIC90: 0.125
[2]; [13]
  total FIC90: 0.443
[2]; [14]
  total FIC90: -0.336
[2]; [15]
  total FIC90: 0.342
[2]; [19]
  total FIC90: 0.594
[2]; [18]
  total FIC90: 0.407
[3]; [6]
  Einf: 0.835
[3]; [7]
  Einf: 0.974
[3]; [8]
  Einf: 0.934
[3]; [9]
  Einf: 0.969
[3]; [10]
  Einf: 0.603
[3]; [11]
  Einf: 0.87
[3]; [12]
  Einf: 0.879
[3]; [13]
  Einf: 1
[3]; [14]
  Einf: 0.882
[3]; [15]
  Einf: 0.98
[3]; [19]
  Einf: 0.969
[3]; [16]
  Einf: 0.873
[3]; [17]
  Einf: 0.865
[3]; [18]
  Einf: 0.93
[4]; [6]
  AUC25: 0.0693
[4]; [7]
  AUC25: 0.0605
[4]; [8]
  AUC25: 0.104
[4]; [9]
  AUC25: 0.0772
[4]; [10]
  AUC25: 0.0843
[4]; [11]
  AUC25: 0.0746
[4]; [12]
  AUC25: 0.0802
[4]; [13]
  AUC25: 0.0682
[4]; [14]
  AUC25: 0.0766
[4]; [15]
  AUC25: 0.0621
[4]; [16]
  AUC25: 0.0275
[4]; [17]
  AUC25: 0.0382
[4]; [18]
  AUC25: 0.0263
[5]; [6]
  GRinf: -0.0692
[5]; [7]
  GRinf: -0.11
[5]; [8]
  GRinf: -0.00353
[5]; [9]
  GRinf: 0.000303
[5]; [10]
  GRinf: 0.0201
[5]; [11]
  GRinf: -0.125
[5]; [12]
  GRinf: -0.196
[5]; [13]
  GRinf: -0.836
[5]; [14]
  GRinf: 0.232
[5]; [15]
  GRinf: -0.102
[5]; [19]
  GRinf: -0.238
[5]; [16]
  GRinf: 0.197
[5]; [17]
  GRinf: 0.0264
[5]; [18]
  GRinf: 0.0382

Reference: the supplement of paper PMC8617591
